Reference: patent publication US12226501B2, “Composition with stabilized taste and odor” (Symrise AG, priority 2015, dated 2025)

How the values were obtained:
DMBA-treated hamsters = conditions: oral 30 mg/kg b.w. on alternate days for 14 weeks; cited from earlier work
[1] = Stabilization of avocado oil, absorbance at 232 nm (conjugated dienes); type: physicochemical; conditions: compared to avocado oil without additive or to alpha-tocopherol 0.5%
Procedure: To evaluate the odor protecting effect of [6]-paradol on oils, oil samples comprising avocado oil without (A) and with different additives (B to D) were prepared as given in Table 5.
(§1) The oil samples were divided respectively into 3 portions, wherein one part was exposed to artificial UV light in a suntest device (Original Hanau-Xenon lamp) for 8 hours 550-600 W/m^2 (300 to 800 nm). The other two portions were stored for 1 month either at room temperature exposed to normal daylight (RTL) or at 50° C. in a heating cabinet (50° C.), respectively. After the treatments, the absorbance at 232 nm was determined as this positive correlates with the state of oxidation by detecting conjugated dienes as specific oxidized compounds.

[2] = Stabilization of argan oil, absorbance at 232 nm (conjugated dienes); type: physicochemical; conditions: compared to argan oil without additive or to alpha-tocopherol 0.5%
Procedure: To evaluate the protecting effect of oils from oxidation, oil samples comprising argan oil without (A) and with different additives (B to D) were prepared as given in Table 8.
as §1, with “oils” for “oil samples”, “divided” for “divided respectively”, “portions each. One portion” for “portions, wherein one part”, “this” for “this positive”

oxidized DNA bases = conditions: in vitro; cited from earlier work
[3] = ABTS-assay, anti-oxidative capacity (inhibition of radical formation); type: biochemical; conditions: for IC50: ABTS radical cation, absorption at 734 nm, mean value from at least 2 independent tests
Procedure: 6-Paradol is a known antioxidant. With the help of the ABTS-assay the anti-oxidative capacity of [6]-paradol and alpha-tocopherol was compared.
2,2′-azino bis-(3-ethylbenzothiazoline 6-sulfonic acid) (ABTS) was transformed by potassium persulfate into the blue-green radical cation ABTS•^+. Through the addition of [6]-paradol and alpha-tocopherol the radical cations were reduced and discoloration was observed, which was determined photometrically by Absorption at 734 nm. The inhibition of the radical formation of the test substance is calculated by the following formula:
[formula] Wherein the abbreviations have the following meanings: • Atest substance: Absorption of the wells with test substance including [6]-paradol and alpha-tocopherol • Acontrol: Absorption of the wells without test substance
From the inhibition of the radical formation [%] in a series of dilutions of tested samples the IC50 was calculated. This is the concentration at which the radical formation is inhibited by 50%.

[4] = Color measurement (CIELAB L*a*b*, ΔE) of anti-aging cream containing a retinoid after suntest; type: physicochemical
Procedure: Retinoids such as e.g. retinol are potent anti-aging cosmetic agents known to be unstable and prone to discoloration upon light exposure and longer storage at higher temperatures (e.g. >30° C.).
The phase A was heated to 80° C. For phase B, Carbopol Ultrez 21 was sprinkled at the surface of the water for swelling. Afterwards, glycerin was added and phase B was heated up to 80°. Then phase B was added to phase A under strong agitation with an Ultra Turrax. The formula was cooled down and phase C was added at around 40° C. Afterwards, the formula was neutralized with sodium hydroxide to get pH 5-5.5. When the formula was at room temperature, phase E was added under agitation. Final pH was checked to be 5-5.5.
The cream samples were exposed to artificial UV light in a suntest device (Original Hanau-Xenon lamp) for 8 hours 550-600 W/m^2 (300 to 800 nm). Afterwards, they were evaluated for discoloration by measurement of L*a*b* values and calculation of the color difference ΔE as described in example 8.

| protective effect on avocado oil (in words) [1] | protective effect on argan oil (in words) [2] | IC50 [3] [µM] | SMILES | status of antioxidants (DMBA-treated hamsters) | H2O2- and UV-induced formation of oxidized DNA bases (oxidized DNA bases) | radical scavenging activity better than alpha-tocopherol ([3]; comparison of IC50 values) [fold] | color protection of retinol (in words) [4] |
| --- | --- | --- | --- | --- | --- | --- | --- |
| lower increase of absorbance at 232 nm | lower increase of absorbance at 232 nm | 17.4 | CCCCCCCC(=O)CCc1ccc(O)c(OC)c1 [[6]-paradol, 1-(4-hydroxy-3-methoxyphenyl)-decan-3-one] | significantly improved the status of antioxidants | attenuated | 1.5 |  |
|  |  | 26.8 | Cc1c(C)c2c(c(C)c1O)CC[C@@](C)(CCC[C@H](C)CCC[C@H](C)CCCC(C)C)O2 [alpha-tocopherol, reference compound] |  |  |  | unsuitable for protecting retinol from discoloration |
